Laboratory results published in patent US10399931B2, “Octahydroanthracene compound, preparation method and application thereof” (SHANDONG XINHUA PHARMACEUTICAL CO., LTD., priority 2016, dated 2019).
Read-outs that look alike come from different tables or passages of the source.

Tests used:
[1] = system: Human leukemia HL60 cells; test: MTT assay, proliferation of human leukemia HL60 cells; type: cell-based; details: for inhibition at 0.01 µM: HL-60, 0.01 μmol/L; for inhibition at 0.01 µM / inhibition at 0.1 µM / inhibition at 1 µM / inhibition at 10 µM: Mean ± SE, read-out: Inhibitive rate (%) against HL60 cells; for inhibition at 0.1 µM: HL-60, 0.1 μmol/L; for inhibition at 1 µM: HL-60, 1 μmol/L; for IC50: MTT, read-out: IC50 against HL60 cells
Protocol: (§1) The survival rate of cells was determined by MTT assay, which is based on the metabolic reduction of 3-(4,5-dimethyl-2thiahiazoyl)-3,5-di-phenyl-tetrazolium bromide (MTT) by viable cells. MTT is a yellow compound, a dye that accepts hydrogen ion, which can act on the respiratory chain in the mitochondria of viable cells. Under the action of succinate dehydrogenase and cytochrome C, the tetrazolium ring was cleaved to form blue Formazan crystals, and the amount of Formazan crystals generated was only proportional to the number of the viable cells. The enzymes disappeared in dead cells, so Formazan crystals could not be dissolved in MTT solution containing 20% sodium dodecyl sulfate (pH 4.7).
(§2) The cells in the logarithmic growth phase were selected and adjusted to an appropriate cell density, seeded in a 96-well plate, 100 μl/well, and cultured in a 37° C., 5% CO2 incubator. The cells were allowed to adhere overnight, then the culture medium was replaced and the drug was added to cultivate for 48 h. A blank control group, a drug administration group and a positive control group were set, with four repeats in each group.
(§3) After 48 h of drug treatment, the cells were incubated with 0.25 mg/ml MTT at 37° C. for 3-4 h, and 100 μl of dimethyl sulfoxide (DMSO) was added to each well after aspirating the culture solution.

[2] = system: Human cutaneous T-cell lymphoma Hut102 cells; test: MTT assay, proliferation of human cutaneous T-cell lymphoma Hut102 cells; type: cell-based; details: HuT-102, 10 μM, Mean ± SE, read-out: Inhibitive rate (%) against Hut102 cells
Protocol: as §1, §2, §3

RXR = test: Verification of RXR target, dual-luciferase reporter in transfected 293T cells; type: cell-based, Human; details: 20 nM, 48 h; for Relative activity (RXR): relative to CON = 1; for Flu (firefly luciferase signal) / Flu/Rlu / Rlu (Renilla luciferase signal): transfected 293T cells
HDAC = test: Verification of HDAC target, HDAC fluorometric activity assay on A549 cell lysate; details: 20 μM, Mean
Protocol: All the compounds were prepared into mother liquors with the same concentration (100 mmol/L) and stored at a temperature of −20° C. […] The DMSO sample was tested at a final concentration of 1%.
A substrate containing an acetylated lysine chain was added to the sample (cell lysate buffer), and the active HDAC in the sample deacetylated the lysine chain on the substrate to activate the substrate. Further, a lysine luminescent reagent is added to generate fluorescence, and the signal was recorded by a microplate reader to indicate the activity of HDAC in the sample.
2) Detection Method • a) Dissolving 50 μg untreated A549 cell lysate in 85 μL (final volume) ddH2O. For the positive blank group, adding 2 μL HeLA nuclear extract first, following by adding 83 μL ddH2O. In the negative blank group, by adding 2 μL Trichostatin A and 83 μL ddH2O. • b) Adding 10 μL 10× buffer to each well. • c) Adding 5 μL HDAC fluorogenic substrate to each well, and adding the drug to make the final concentration reach the set concentration, mixing well, and incubating at 37° C. for 30 min. • d) Adding 10 μL lysine developer, mixing well, then stopping the reaction, incubating for 30 min at 37° C. • e) Detecting the fluorescence value by the microplate reader (condition: emission wavelength/excitation wavelength is 350-380/440-460 nm).

[3] = Homo sapiens, HL-60, 10 μmol/L (rescreening)
[4] = Homo sapiens, HL-60, 48 h, 10 μM, 48 h
[5] = Homo sapiens, HL-60, 48 h, 48 h

Row | melting point [°C] | SMILES | inhibition at 0.01 µM ([1]; Homo sapiens) [%] | inhibition at 0.1 µM ([1]; Homo sapiens) [%] | inhibition at 1 µM ([1]; Homo sapiens) [%] | inhibition at 10 µM [1, 3] [%] | inhibition at 10 µM [1, 4] [%] | IC50 [1, 5] [µM] | IC50 ([1]; 48 h) [µM] | inhibition at 10 µM [2] [%] | Relative activity (RXR) (RXR) | Flu (firefly luciferase signal) (RXR) | Flu/Rlu (RXR) | Rlu (Renilla luciferase signal) (RXR) | Inhibitive rate of HDAC activity of A549 cells (HDAC) [%]
1 | – | CC1(C)CCC(C)(C)c2c1cc1c(c2NC(=O)c2ccc(C(=O)NCCN)cc2)C(C)(C)CCC1(C)C [OAA-6, N-(2-amino) ethyl-4-[(1,1,4,4,5,5,8,8-octamethyl-1,2,3,4,5,6,7,8-octahydro-9-anthryl)carbamoyl] benzamide] | 1.2 ± 0.27 | 13.4 ± 1.5 | 76.73 ± 0.07 | 79.74 ± 0.46 | > 50 | < 10 | 5.63 ± 1.14 | 23.9 ± 1.03 | 1.47 | 452598 | 2.59 | 174827 | −11.07
2 | – | CCN(CC)CCNC(=O)Nc1ccc(C(=O)Nc2c3c(cc4c2C(C)(C)CCC4(C)C)C(C)(C)CCC3(C)C)cc1 [OAB-12, 1-[2-(N,N-diethylamino)]ethyl-3-{4-[(1,1,4,4,5,5,8,8-octamethyl-1,2,3,4,5,6,7,8-octahydro-9-anthryl)carbamoyl]phenyl} urea] | 8.96 ± 1.45 | 11.8 ± 1.33 | 73 ± 1.31 | 78.94 ± 0.42 | – | – | – | 43.7 ± 3.98 | 0.85 | 4013 | 1.49 | 2686 | 4.17
3 | – | CN(C)CCNC(=O)Nc1ccc(C(=O)Nc2c3c(cc4c2C(C)(C)CCC4(C)C)C(C)(C)CCC3(C)C)cc1 [OAB-13, 1-[2-(N,N-dimethylamino)]ethyl-3-{4-[(1,1,4,4,5,5,8,8-octamethyl-1,2,3,4,5,6,7,8-octahydro-9-anthryl)carbamoyl]phenyl} urea] | 12.6 ± 0.7 | 11.4 ± 0.88 | 53.3 ± 1.22 | 79.93 ± 0.16 | – | < 10 | 6.65 ± 2.93 | 39.8 ± 0.81 | 1.11 | 76228 | 1.95 | 39025 | 3.19
4 | 284 to 287 | CC1(C)CCC(C)(C)c2c1cc1c(c2NC(=O)c2ccc(NC(=O)NCCO)cc2)C(C)(C)CCC1(C)C [OAB-17, 1-(2-hydroxy) ethyl-3-{4-[(1,1,4,4,5,5,8,8-octamethyl-1,2,3,4,5,6,7,8-octahydro-9-anthryl)carbamoyl]phenyl} urea] | – | – | – | – | 33.6 ± 0.7 | – | – | 9.22 ± 1.29 | – | – | – | – | –
